Measured values taken from patent US20140206028A1, “Stable Electrically Active Neurons from Adult Tissue” (University of Central Florida Research Foundation, Inc., priority 2011, published 2014).

Tests used:
Type in all cases: cell-based
[1] = system: embryonic rat hippocampal neurons on MEAs; assay: MEA recording of spontaneous activity, embryonic hippocampal neurons; conditions: embryonic cultures
Description: Embryonic hippocampal neurons were cultured. Pregnant rats, 18 days in gestation, obtained from Charles River were euthanized with carbon dioxide and the fetuses were collected in ice-cold Hibernate E (BrainBits)/B27/Glutamaxtm/Antibiotic-antimycotic (Invitrogen) (Dissecting Medium). Each fetus was decapitated, and the whole brain was transferred to fresh ice cold dissecting medium. After isolation, the hippocampi were collected in a fresh tube of dissecting medium. The tissue was enzymatically digested at 37° C. for 10 minutes with papain (Worthington 3119), 12 mg/6 ml Hibernate-E (-calcium) (BrainBits)+0.5 mM Glutamax (Invitrogen). Hippocampal neurons were obtained by triturating the tissue using a fire-polished Pasteur pipette. After centrifugation, the cells were re-suspended in culture medium (Neurobasal/B27/Glutamaxtm/antibiotic-antimycotic) and plated on MEAs. All research was approved by the Institutional Animal Care and Use Committee at the University of Central Florida and conformed to NIH guidelines.
(§1) The MEA chips (Axion Biosystems) provided 64 platinum-black coated gold-electrodes with a diameter of 30 μm, organized in an 8 by 8 array with 200 μm pitch. Clean MEAs were sterilized with 70% alcohol and then incubated with 1 ml poly-L-lysine (100 μg/ml) for 30 minutes. An area just large enough to cover all electrodes was additionally coated with 3 μl laminin (2 μg/ml) over night. Embryonic rat hippocampal neurons were plated directly on MEAs at a density of 500 cells/mm2. Adult rat hippocampal neurons were first cultured on DETA coated cover slips for recovery. […] After 4 days on DETA cover slips, the adult neurons were passaged onto MEAs at a density of 500 cells/mm2. Every 2-3 days, half the medium was replaced with fresh Maintenance medium supplemented with 2 μM Rosc.
(§2) MEAs were incubated with their covers off to allow gas exchange but covered upon removal from the incubator to reduce contamination, media evaporation, and gas exchange while recordings were taken. The head stage of the recording system (Axion Biosystems) was pre-heated to 37° C. before MEAs with adult or embryonic hippocampal cultures were investigated. The activity of neuronal networks was recorded with 25 kHz using the software Axion's Integrated Studio (AxIS). Signal amplitudes 6 times larger than the standard deviation of the base line were detected as action-potential spikes. The spike data was then imported into Matlab 2010b (The MathWorks) for further processing.
Baseline spontaneous activity in adult and embryonic neurons was recorded for 3 minutes on 5 consecutive days per week, starting on 7 div. The synaptic antagonists D-(−)-2-Amino-5-phosphonopentanoic acid (D-APS, 25 μM, Tocris Bioscience, 0106), 6-Cyano-7-nitroquinoxaline-2,3-dione disodium (CNQX, 25 μM, Tocris Bioscience, 1045), and (−)-Bicuculline methobromide (Bicuculline, 50 μM, Tocris Bioscience, 0109) were separately administered to both adult and embryonic neurons on 14 div and at various time points between 30 and 60 div. Three minute recordings were made to quantify the effect from these antagonists on spontaneous activity. If necessary, additional baselines were recorded prior to the administration of antagonists. Each experiment was followed by a complete washout of the antagonist and replacement with fresh medium.
Data analysis was performed off-line using unpublished Matlab functions to evaluate spike files created during each MEA recording. […] In about 25% of the adult cultures and 14% of the embryonic cultures, portions of the neuronal networks detached from the substrate over time and especially after about 6 weeks. In order to accommodate the different numbers of active channels between MEAs, all values were corrected for the amount of active channels on an MEA. […]

[2] = system: adult rat hippocampal neurons on MEAs; assay: MEA recording of spontaneous activity, adult hippocampal neurons; conditions: adult cultures
Description: Adult neurons were extracted, dissociated, cultured, and maintained. Briefly, the hippocampi of adult rats (Charles River, age 6-12 months) were dissected and homogenized into small tissue fragments in cold medium (˜4° C.) consisting of Hibernate-A, glutamax, and antibiotic-antimycotic. The tissue was digested for 30 minutes at 37° C. in calcium-free Hibernate-A (HA) containing 6 mg papain/12 ml (HA no calcium). Following digestion, the tissue was washed three times with cold HA media to remove any active enzyme. Next, the tissue was suspended in Dissociation Medium and broken apart into individual cells through mechanical dissociation with fire-polished Pasteur pipettes. The dissociated cells were suspended in Plating medium and then deposited onto DETA (N-1 [3-(trimethoxysilyl) propyl]-diethylenetriamine, United Chemical Technologies Inc., Bristol, Pa., T2910KG) coated glass cover slips. After 30-45 minutes, the cover slips were washed with warm HA by gently swirling the medium to remove tissue debris. Following this washing step, fresh Plating medium was applied and remained for the first 3 div. On 3 div the medium was removed and replaced by Maintenance Medium with 5 μM Roscovitine (Rosc, Sigma, R7772). All research was approved by the Institutional Animal Care and Use Committee at the University of Central Florida and conformed to NIH guidelines. After 4 div, the adult hippocampal neurons on the DETA cover slips were passaged to MEAs. Briefly, neurons were dislodged from the DETA with trypsin (0.05% trypsin/EDTA in HBSS, Gibco, 25200). Trypsin inhibitor (trypsin inhibitor, soybean, Gibco, 17075-029) in Dissociation medium at 0.5 mg per ml deactivated the trypsin. The dislodged neurons were collected and spun at 500×g for 5 minutes. The supernatant of deactivated trypsin in HBSS was discarded, and the neuronal cell pellet was suspended in 1 ml Plating medium. Immunocytochemistry and Laser Scanning Confocal Microscopy
as §1, §2
Baseline spontaneous activity in adult and embryonic neurons was recorded for 3 minutes on 5 consecutive days per week, starting on 7 div. The synaptic antagonists D-(−)-2-Amino-5-phosphonopentanoic acid (D-APS, 25 μM, Tocris Bioscience, 0106), 6-Cyano-7-nitroquinoxaline-2,3-dione disodium (CNQX, 25 μM, Tocris Bioscience, 1045), and (−)-Bicuculline methobromide (Bicuculline, 50 μM, Tocris Bioscience, 0109) were separately administered to both adult and embryonic neurons on 14 div and at various time points between 30 and 60 div. […]

[3] = system: adult rat hippocampal neurons; assay: Control of neuronal division in dissociated adult rat hippocampal neuron culture (cell population, neurite length, marker expression); conditions: for elimination of division of cultured neurons by mitotic inhibitors: added to culture medium on 2 DIV, FudR 10 and 50 μM; for neuronal division after addition to the culture medium: roscovitine added to the culture medium (at 3 div in MEA work)
Description: The hippocampi of adult rats (Charles River, age 6-12 months) were dissected and homogenized into small tissue fragments in cold medium (˜4° C.) consisting of Hibernate-A, Glutamax, and antibiotic-antimycotic. The tissue was then digested for 30 minutes at 37° C. in calcium-free Hibernate-A (HA) containing 6 mg papain/12 ml (HA). Following digestion, the tissue was washed three times with cold Hibernate-A media to remove any active enzyme. Next, the tissue was suspended in Dissociation Media (Table 1), formulated for dissociation of rat and mouse adult brain tissue into individual cells and dissociated into individual cells through mechanical dissociation with fire-polished Pasteur pipettes. The dissociated cells were suspended in Plating Media (Table 1), used after tissue dissociation to promote neuronal attachment and regeneration, and then deposited onto DETA-coated glass cover slips for 30-45 minutes. DETA, with its triamine functional group exposed at the surface, strongly attaches to neurons and allows for all non-neuronal debris such as ECM proteins, myelin debris, and cell fragments to be washed from the cover slip surface (D. A. Stenger et al., 1993; J. J. Hickman et al., 1994; M. Das et al., 2005; A. E. Schaffner et al., 1995). Following this washing step, fresh Plating medium was applied and remained for the first 3 DIV. On 3 DIV and every fourth subsequent day, one half of the medium was removed and replaced with Maintenance Media (FIG. 1, Table 1), supporting the long-term maintenance of these neurons. […] The osmolarity of the media was adjusted to match the osmolarity of adult rat cerebrospinal fluid (295-305 mOsm) (S. C. Baraban et al., 1997; R. A. Fishman and G. D. Silverberg, 2002). In the Dissociation Medium (Table 1), the use of caspase inhibitors and antioxidants (M. Das et al., 2007) during the dissociation of the tissue minimized both oxidative damage as well as the progression into apoptosis which normally results from cellular damage during this stage. […] For long-term survival, the anti-oxidants were removed from the Maintenance Medium (Table 1).
After neuronal confluence, 25 μM glutamate ((N-Acetyl-L-glutamic acid, Aldrich, 855642) triggers induction of neuronal electrical recovery (D. Edwards et al., 2010). Control of the division of neurons in this culture system was investigated experimentally as follows: (1) bFGF removal from both the Plating and Maintenance medium. (2) Fluorodeoxyuridine (FudR, Sigma-Aldrich, F-0503) addition at 10 and 50 μM (3) arabinoside-D (ara-C, Sigma, C-6645) plus deoxycytidine addition. (4) Trolox (Sigma, 238813) addition at 40 and 100 μM. (5) Aphidicolin (Aph, Sigma, A0781) addition at 1.5 μM. (6) Roscovitine (Rosc, Sigma, R7772) addition at 1, 5, and 10 μM. All factors were added before the onset of neuronal division (2 DIV), some after the onset of division (after 3 DIV).
To prepare cells for immunocytochemical characterization, cover slips were rinsed twice with Phosphate Buffered Saline (PBS). Cells were fixed with 4% paraformaldehyde for ten minutes at room temperature, and subsequently rinsed three times with PBS. Cells were permeabilized for five min in PBS with 5 mM Lysine and 0.5% Triton X-100, and were then blocked for two hours by adding 5% normal donkey serum. Anti-Neurofilament-M polyclonal antibody (Nf-M, intracellular filament found in mature neurons, Chemicon, AB 1981, diluted 1:1000), anti-NeuN (nuclear marker in mature neurons, Chemicon, diluted 1:1000), anti-Ki-67 (nuclear marker in dividing cells, Chemicon, diluted 1:1000), anti-NR2A (NMDA channel subunit expressed in the post-synaptic cell membrane, AB1548, diluted 1:75), anti-NR2B (NMDA channel subunit expressed in the post-synaptic cell membrane, MAB5216, diluted 1:150) were added in blocking solution for 12 hr at 4° C. After 3 washes with PBS, fluorescently labeled secondary antibodies (Invitrogen, A1011, A21449, and A11029) were applied for two hours. […]

## N#Cc1cc2c(cc1[N+](=O)[O-])=NC(=O)C(=O)N=2.[Na].[Na] [CNQX, 6-Cyano-7-nitroquinoxaline-2,3-dione disodium]
[1]; 25 μM CNQX, 14 div
  change in action potential frequency: not affected
[1]; 25 μM antagonist, 14 div
  loss of channel activity (active channels) versus baseline: 23±5%
[1]; 25 μM antagonist, 30-60 div
  decrease (drop) of firing rate versus baseline: 47±5%
  loss of channel activity (active channels) versus baseline: 0±7%
[2]; 25 μM CNQX, 14 div
  change in action potential frequency: not affected
[2]; 25 μM antagonist, 14 div
  loss of channel activity (active channels) versus baseline: 52±3%
[2]; 25 μM antagonist, 30-60 div
  loss of channel activity (active channels) versus baseline: 24±5%
  lowering (drop) of action potential frequency versus baseline: 31±6%

## N[C@H](CCCP(=O)(O)O)C(=O)O [D-AP5, D-(−)-2-Amino-5-phosphonopentanoic acid]
[1]; 25 μM antagonist, 14 div
  increase of firing rate versus baseline: 90±6%
  loss of channel activity (active channels) versus baseline: 65±4%
[1]; 25 μM antagonist, 30-60 div
  decrease (drop) of firing rate versus baseline: 70±7%
  loss of channel activity (active channels) versus baseline: 36±7%
[2]; 25 μM antagonist, 14 div
  loss of channel activity (active channels) versus baseline: 90±6%
  lowering of action potential frequency versus baseline: 76±8%
[2]; 25 μM antagonist, 30-60 div
  loss of channel activity (active channels) versus baseline: 82±6%
  lowering (drop) of action potential frequency versus baseline: 82±17%

## O=c1[nH]c(=O)n([C@H]2C[C@H](O)[C@@H](CO)O2)cc1F [FudR, Fluorodeoxyuridine]
[3]
  elimination of division of cultured neurons by mitotic inhibitors: all dividing cells were forced into apoptosis

## Cc1c(C)c2c(c(C)c1O)CCC(C)(C(=O)O)O2 (centres unmarked) [Trolox]
[3]; Trolox 40 and 100 μM, 2 DIV
  prevention of return of primary neurons to the cell cycle: not effective
[3]; Trolox in culture medium
  neuronal survival (antioxidant activity): improve neuronal survival

## C[C@@]1(CO)[C@H](O)CC[C@@]2(C)[C@H]1CC[C@H]1C[C@@H]3C[C@@]12CC[C@]3(O)CO [aphidicolin, Aphidicolin]
[3]; aphidicolin 1.5 μM, 2 DIV
  regeneration of surviving neurons: limited regeneration of neurites and functional electrical properties
  survival of cultured neurons: caused most cultured neurons to either necrose or apoptose

## Nc1ccn([C@@H]2O[C@H](CO)[C@@H](O)[C@@H]2O)c(=O)n1 [ara-C, arabinoside-D]
[3]
  elimination of division of cultured neurons by mitotic inhibitors: all dividing cells were forced into apoptosis

## CC[C@H](CO)Nc1nc(NCc2ccccc2)c2ncn(C(C)C)c2n1 [roscovitine]
[3]; 1 μM roscovitine applied on day 2, bFGF in medium
  neuronal cell population: the cell population increased more slowly than without roscovitine
[3]; 5 μM roscovitine days 2-7, 2 μM after day 7, on average
  extension of primary axons versus untreated control neurons: 4-5 times longer
[3]; 5 μM roscovitine on days 2-7 in vitro and 2 μM after day 7
  neuronal cell population: A stable population of neurons was achieved
[3]; 5 μM roscovitine on days 2-7 in vitro and 2 μM after day 7, listed as Rosc
  neuronal cell population: stable in vitro
[3]; 10 μM roscovitine applied on day 2
  neuronal cell population: caused a decrease in the neuronal population
[3]; 10 μM roscovitine introduced on day 7
  neuronal cell population: a sharp loss of neurons
[3]
  neuronal division after addition to the culture medium: neurons no longer divided
[3]; listed as Roscovitine
  neuronal division after addition to the culture medium: prevented neuronal mitotic activity
[3]; roscovitine treated, non-proliferating neurons, immunocytochemistry
  expression of neuronal and proliferation markers (MAP2, NeuN, Ki-67): expressed the mature neuronal markers MAP2 and NeuN, but lacked expression for the nuclear marker of proliferating cells, Ki-67

## bFGF: basic fibroblast growth factor (Invitrogen, 13256-029)
[3]; bFGF 5 ng/ml in medium
  neuronal cell proliferation: triggered neuronal cell proliferation until confluence
